US7507727B2, “Substituted quinobenzoxazine analogs and methods of using thereof” (Cylene Pharmaceuticals, Inc., priority 2003, dated 2009)
Values joined by “and” are separate entries in the source; they are usually repeats but may differ in a detail not shown here. Equal values may be shown once. Read-outs that look alike come from different tables or passages of the source.

Columns and labels:
HCT-116 = assay: Cell proliferation/cytotoxicity in HCT-116 (Table 1D); type: cell-based; settings: Homo sapiens; HCT-116 cells; unit inferred
[1] = target: c-Myc template DNA (c-myc quadruplex); assay: Quadruplex binding / stop assay (Taq polymerase arrest, capillary electrophoresis)
HeLa cells = assay: MTS cell proliferation and/or cytotoxicity assay; type: cell-based, Human
Procedure, shortened: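 HeLa cells seeded at 4,500 cells/well, exposed to compounds from day 1 for 3 days at 37 °C, 5% CO2. Viability by MTS/PMS (20:1) with 4 h incubation, absorbance at 490 nm. Values are concentrations giving 50% antiproliferative response.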

HCT-116 xenograft = assay: HCT-116 colorectal cancer xenograft model; type: in vivo; settings: HCT-116 model; FIG. 6
Procedure: (§1) Two xenograft models for inoculation were harvested and diluted to a concentration of 50×10^6 cells/ml or 100×10^6 cells/ml. Four to six week old nude mice were injected with 0.1 ml of the cell suspension containing between 5×10^6 and 10×10^6 cells. When tumors are of a suitable size compound dosing is commenced. Tumor sizes are measured throughout the treatment period with calipers and body weights also measured.
CX-3543 was tested against a number of cancer xenograft models to determine the in vivo efficacy. HCT-116 and PC-3 tumor-bearing nu/nu or MiaPaCa tumor-bearing SCID mice were administered reference and testing compounds on schedules indicated in figure legends. Tumor measurements were taken with calipers every other day or twice a week starting from the first day of dosing and body weights were measured at the same time points. Tumor volumes were calculated from the standard formula, W^2×L/2. c-MYC mRNA expression was measured with QPCR from all tumor samples following the final dose. 18S ribosomal RNA was used as a housekeeper and also quantified with QPCR.

[2] = test system: Salmonella typhimurium (TA97a, TA98, TA100, TA102, TA1535); settings: positive control
Procedure: This Mutagenicity Assessment (Ames Assay) evaluated the potential of the test article extracts to induce histidine (his) reversion in S. typhimurium (his− to his+) or tryptophan (trp) reversion in E. coli (trp− to trp+) caused by base changes or frameshift mutations in the genome of tester organisms.
This plate incorporation assay was conducted with five strains of Salmonella typhimurium (TA97a, TA98, TA100, TA102, and TA1535) and one strain of Escherichia coli (WP2-uvrA^−) in the presence and absence of an exogenous mammalian activation system (S9). The test article was dissolved in 5% dextrose. A series of dilutions were then prepared in saline just prior to testing. A Range Finding Study was conducted for this assay to determine the appropriate doses for definitive mutagenicity assessment.
A stock solution of test article was prepared at 20.0 mg/mL as follows: 1.0 g test article was added to 15.0 mL of 0.1 HCl for 1 minute. The test article was stirred for 15 minutes at room temperature. Next 33.0 mL of deionized water was added and allowed to stir for 30 minutes. […] Lower doses were prepared by dilution in 5% dextrose from this stock immediately prior to use. To minimize any change of degradation, the test article solutions were kept on ice after preparation and until just prior to dosing procedures. The test article was administered in vitro, through a solvent compatible with the test system.
This assay has historically been used to detect mutation in a gene of a histidine requiring strain to produce a histidine independent strain or concordantly, to detect mutation in a gene of a tryptophan requiring strain to produce a tryptophan independent strain.
S. typhimurium strain TA1535 and E. coli strain Wp2-uvrA^− were received from American Type Culture Collection, Manassas, Va. […] All working stocks of test strains will be confirmed for genotypic markers and acceptable reversion rates.
Master plates of the tester strains were prepared from frozen working stocks. To create working cultures for each bacterial strain used in the assay, a single colony was transferred from the master plate into Oxoid nutrient broth and incubated, with shaking, at 37±2° C. until an optical density (at 650 nm) of 0.6-1.6 was reached. This overnight culture was used for the mutagenicity test and for genotypic confirmation. Genotype tests were performed.
For both the dose range and mutagenicity test, a top agar consisting of 0.6% Difco agar in 0.5% NaCl was melted and a solution of 0.5 mM L-histidine/0.5 mM biotin or 0.5 mM L-tryptophan was added to the melted top agar at a ratio of 10 mL per 100 mL agar, as required. The supplemented agar was aliquotted, 2 mL per tube and held at 45-47° C. To prepare the top agar for treatment, 0.1 mL of the test article or control, 0.1 mL of the bacterial culture and 0.5 mL of phosphate buffered saline were added to the molten agar. […] Metabolic activation was provided by adding 0.5 mL of the S9 mix in place of the PBS. […] All plates were counted using an automatic image analysis system. Negative control and test article treated plates were also examined for the presence of a bacterial lawn.
The in vitro metabolic activation system used in this assay was comprised of Sprague Dawley rat liver enzymes and a cofactor pool. […] Immediately prior to use, the S9 was thawed and mixed with a cofactor pool to contain 5% S9, 5 mM glucose 6-phosphate, 4 mM β-nicotine-adenine dinucleotide phosphate, 8 mM MgCl2 and 33 mM KCl in a 200 mM phosphate buffer at pH 7.4. The S9 was purchased from Moltox (Boone, N.C.) and maintained frozen at less than −70° C.
For the definitive assay, three dose levels were chosen ([…], and 5.0 mg/mL). This was equivalent to 2.0, 1.0, and 0.5 mg/plate. All treatments, including negative and positive control, were plated in triplicate against test strains TA97a, TA98, TA100, TA102, TA1535, and WP2-uvrA^− in the presence and absence of metabolic activation.

[3] = test system: Chinese Hamster Ovary Cells (CHO); assay: In vitro chromosome aberration assay (incl. mitotic index); type: cell-based
topoisomerase II = assay: Topoisomerase-II poison assay; type: biochemical; settings: 1 μM; control Topoisomerase-II poison
From the text: FIG. 7 illustrates data from a toposiomerase-II poison assay, using VP-16 (Etoposide) as a control Topoisomerase-II poison.

Ramos xenograft = assay: Ramos Burkitt's lymphoma xenograft model; type: in vivo; settings: FIG. 5
Procedure: as §1

[4] = read-out: S DATA, Table 1D, stop assay data
[5] = Homo sapiens, HeLa, 72 h, concentration at which 50% of antiproliferative cell response is seen, 3 days incubation, read-out: MTS Data Hella
[6] = read-out: Stop Data c-Myc μM, concentration at which 50% of the DNA was arrested (arrested:full-length 1:1)
[7] = CHO, positive control high dose (H)
[8] = CHO, positive control low dose (L)
[9] = CHO, positive control low dose (L), 20 hrs
[10] = Homo sapiens, HeLa, HeLa cells, MTS, read-out: Hela MTS

Molecule	IC50 (HCT-116)	IC50 [1, 4]	IC50 (HeLa cells; [5])	IC50 [1, 6]	further results
COc1ccc(CN2CCN(c3c(F)cc4c(=O)c(C(=O)NCCN5CCCC5)cn5c4c3Oc3cc(Cl)ccc3-5)CC2)cc1 [compound 1828]	100 nM	7.5 µM	–	–	–
O=C(NCCN1CCCC1)c1cn2c3c(c(NCCCN4CCOCC4)c(F)cc3c1=O)Oc1cc3ccccc3cc1-2 [compound 494]	–	–	190 nM	0.44 µM	antitumor activity: efficacy (HCT-116 xenograft): slow tumor weight gain; toxicity (body weight) (HCT-116 xenograft): little body weight change
CC(C)CN1CCN(c2c(F)cc3c(=O)c(C(=O)NCCN4CCCC4)cn4c3c2Oc2cc(Cl)ccc2-4)CC1 [compound 1826]	30 nM	7.5 µM	–	–	–
CN1CCCC1CCNC(=O)c1cn2c3c(c(N[C@H]4CN5CCC4CC5)c(F)cc3c1=O)Oc1cc3ccccc3cc1-2 (some centres unmarked) [compound 1496]	340 nM	0.375 µM	–	–	–
Nc1ccc2cc3ccccc3cc2c1 [2-AA]	–	–	–	–	FI ([2]; TA100, with S9 activation): 6.8; TA100 colony count (Rep 1-3) ([2]; TA100, with S9 activation): 655 and 857 and 949; TA100 colony count, Mean ([2]; TA100, with S9 activation): 820.3
[N-]=[N+]=[N-] [Sodium Azide]	–	–	–	–	FI ([2]; TA100, without S9 activation): 4.9; TA100 colony count (Rep 1-3) ([2]; TA100, without S9 activation): 615 and 631 and 702; TA100 colony count, Mean ([2]; TA100, without S9 activation): 649.3
CO[C@@]12[C@H](COC(N)=O)C3=C(C(=O)C(C)=C(N)C3=O)N1C[C@@H]1N[C@@H]12 [MMC]	–	–	–	–	% CA 3 HRS [3, 7]: 42.0%; FI 3 HRS [3, 7]: 14.0; % CA 3 HRS [3, 8]: 20.3%; FI 3 HRS [3, 8]: 6.8; % CA 20 HRS [3, 9]: 26.5%; FI 20 HRS [3, 9]: 8.8; % MI 20 HRS ([3]; average mitotic index, positive control low dose (L), 20 hrs): 5%; % MI ([3]; average mitotic index, positive control low dose (L), first column (time not given)): 6%
O=C(NCCN1CCCC1)c1cn2c3c(c(N4CCNCC4)c(F)cc3c1=O)Oc1cc(Cl)ccc1-2 [compound 1820]	30 nM	8.2 µM	–	–	–
O=C(NCCN1CCCC1)c1cn2c3c(c(N4CCC(c5cnccn5)C4)c(F)cc3c1=O)Oc1cc(Cl)ccc1-2 (centres unmarked) [compound 1811]	200 nM	2.8 µM	–	–	–
O=C(NCCN1CCCC1)c1cn2c3c(c(NCCCN4CCOCC4)c(F)cc3c1=O)Oc1cc(Cl)ccc1-2 [compound 1816]	30 nM	5 µM	–	–	–
CCN1CCN(c2c(F)cc3c(=O)c(C(=O)NCCN4CCCC4)cn4c3c2Oc2cc(Cl)ccc2-4)CC1 [compound 1827]	10 nM	4.8 µM	–	–	–
VP-16	–	–	–	–	topoisomerase-II mediated DNA cleavage (topoisomerase II): formation of double-strand breaks
CN1CCN(CCCNCCC(=O)N[C@@H]2CCN(c3c(F)cc4c(=O)c(C(=O)N5CCOCC5)cn5c4c3Oc3cc4c(cc3-5)oc3ccccc34)C2)CC1 [compound 1204]	–	–	–	–	antitumor activity: efficacy (Ramos xenograft): slow tumor weight gain; toxicity (body weight) (Ramos xenograft): little body weight change
NC(N)=NCCCCNC(=O)c1cn2c3c(c(N4CC[C@@H](N)C4)c(F)cc3c1=O)Oc1cc3ccccc3cc1-2 [compound 578]	–	–	580 nM	0.18 µM	–
CN1CCCC1CCNC(=O)c1cn2c3c(c(N4CCC(CCCC5CCNCC5)CC4)c(F)cc3c1=O)Oc1cc3ccccc3cc1-2 (centres unmarked) [compound 535]	–	–	310 nM	0.375 µM	–
CN1CCCC1CCNC(=O)c1cn2c3cc4c(=O)c5ccccc5c(=O)c4cc3oc3c(NCCN4CCCC4)c(F)cc(c1=O)c32 (centres unmarked) [compound 592]	–	–	3800 nM	0.1 µM	–
CC(=O)N[C@@H]1CCN(c2c(F)cc3c(=O)c(C(=O)NCCCCN(C)C)cn4c3c2Oc2cc3c(cc2-4)oc2ccccc23)C1 [compound 374]	–	–	3300 nM	0.75 µM	–
CN1CCCC1CCNC(=O)c1cn2c3c(c(N4CC[C@@H](N)C4)c(F)cc3c1=O)Oc1ccccc1-2 (some centres unmarked) [compound 111]	–	–	220 nM	1.75 µM	–
CN(C)CCCCNC(=O)c1cn2c3c(c(NCCN4CCCC4)ccc3c1=O)Oc1cc3ccccc3cc1-2 [compound 1520]	–	0.375 µM	–	–	IC50 (HeLa cells; [10]): 200 nM
CC(C)(C)OC(=O)N[C@H]1CCN(c2c(F)cc3c(=O)c(C(=O)O)cn4c5cc6oc7cc([N+](=O)[O-])ccc7[nH]c6cc5oc2c34)C1 [compound 24]	–	–	7000 nM	0.5 µM	–
O=C(NCCN1CCCC1)c1cn2c3c(c(N4CC5CCCNC5C4)c(F)cc3c1=O)Oc1cc3ccccc3cc1-2 (centres unmarked) [compound 1635]	–	0.18 µM	–	–	IC50 (HeLa cells; [10]): 300 nM
CN1CCCC1CCNC(=O)c1cn2c3c(c(NC[C@H]4CCCO4)c(F)cc3c1=O)Oc1cc3ccccc3cc1-2 (some centres unmarked) [compound 34]	–	–	280 nM	3 µM	–
CC(C)(C)OC(=O)N1CCN(c2c(F)cc3c(=O)c(C(=O)NCCN4CCCC4)cn4c3c2Oc2cc(Cl)ccc2-4)CC1 [compound 1818]	40 nM	2.9 µM	–	–	–
CN1CCCC1CCNC(=O)c1cn2c3c(c(N4CC[C@H](N)C4)c(F)cc3c1=O)Oc1ccccc1-2 (some centres unmarked) [compound 36]	–	–	160 nM	3 µM	–
CN1CCCC1CCNC(=O)c1cn2c3c(c(NC[C@@H]4CCCO4)c(F)cc3c1=O)Oc1cc3ccccc3cc1-2 (some centres unmarked) [compound 26]	–	–	–	4 µM	IC50 (HeLa cells; concentration at which 50% of antiproliferative cell response is seen, 3 days incubation, read-out: MTS Data Hella): 730 nM
